molecular target: T1, hACMSD (Homo sapiens, UniProt Q8TDX5); assay: Determination of ACMSD1 inhibition (spectrophotometrical in vitro assay); assay type: biochemical; details: HAA concentration of 10 μM, 25° C.
T1 construct: made in house; host or cells: Pichia pastoris
Description: The activity of compounds as inhibitors of ACMSD1 is determined in a spectrophotometrical in vitro assay. The pre-assay mixture is incubated and a compound of Formula (I), Formula (Ia), Formula (Ib), Formula (Ic), Formula (Id), Formula (Ie), Formula (If), Formula (Ig), Formula (Ih), Formula (Ii), Formula (Ij), Formula (II), Formula (IIa), Formula (IIb), Formula (IIc), Formula (IId), Formula (IIe), Formula (IIf), Formula (IIg), Formula (IIh), Formula (IIi), Formula (IIj), Formula (IIk), and Formula (IIl), or a pharmaceutically acceptable salt thereof, and ACMSD1 solution is then added. The effect of ACMS concentration on the enzyme activity is investigated by varying 3-hydroxyanthranilic acid (30H-HA) concentration in the pre-assay mixture. Kinetic parameters are calculated from the initial velocity data using a Lineweaver-Burk plot.
The inhibition activity of ACMSD1 of compounds disclosed herein was determined by measuring the conversion of 30H-Anthranilic Acid into product (i.e., ACMS) in a spectrophotometrical in vitro assay.
The pre-assay mixture consisting of 3-hydroxyanthranilic acid (30H-HA), 3-hydroxyanthranilic acid, 3,4-diOxygenase (HAO), and a dialyzed crude extract of E. coli BL21 (DE3) cells expressing the recombinant enzyme, was incubated at 25° C. with monitoring of the increase in absorbance at 360 nm due to the formation of ACMS from 30H-HA. After the reaction was completed within 2 mins, an aliquot of ACMSD1 solution (prepared and purified from Pichia Pastoris overexpressing the recombinant enzyme) was added, and the decrease in absorbance at 360 nm was followed at 15 second intervals. The effect of ACMS concentration on the enzyme activity was investigated by varying 30H-HA concentration from 2 to 20 µM. Kinetic parameters were calculated from the initial velocity data by using the Lineweaver-Burk plot.
The rate of the decrease in absorbance caused by ACMSD1 was calculated by subtracting that of the control reaction mixture without ACMSD from that described above. One unit of ACMSD activity was indicated as the amount of enzyme that converts 1 mmol of ACMS per minute at 25° C. The absence or a reduction of ACMSD1 activity (e.g., by using ACMSD inhibitors) results in a slow ACMS-spontaneous degradation (i.e., cyclization to form quinolic acid).
The enzymatic activity was determined at a HAA concentration of 10 μM in the presence of the compounds in Table 1 below. The compounds were tested at the concentration of about […] and 10 μM and the IC50 was calculated for compounds showing inhibitory activity higher than 500.

T1 sequence (Q8TDX5 whole entry): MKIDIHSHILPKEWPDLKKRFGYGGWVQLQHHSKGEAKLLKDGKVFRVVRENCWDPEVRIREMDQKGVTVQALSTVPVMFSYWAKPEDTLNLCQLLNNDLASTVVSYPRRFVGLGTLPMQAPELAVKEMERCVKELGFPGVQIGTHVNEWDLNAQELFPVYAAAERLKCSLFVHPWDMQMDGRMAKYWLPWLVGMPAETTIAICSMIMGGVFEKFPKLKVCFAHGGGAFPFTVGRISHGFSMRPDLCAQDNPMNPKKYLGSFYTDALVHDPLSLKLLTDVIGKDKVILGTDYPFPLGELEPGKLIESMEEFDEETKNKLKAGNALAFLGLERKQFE

`COc1cccc(/C=C/c2[nH]c(=O)[nH]c(=O)c2C#N)c1OCC(=O)O` [I-2, (E)-2-(2-(2-(5-cyano-2,6-dioxo-1,2,3,6-tetrahydropyrimidin-4-yl)vinyl)-6-methoxyphenoxy)acetic acid] and `COc1cccc(/C=C/c2nc(SC)[nH]c(=O)c2C#N)c1OCC(=O)O` [I-15, (E)-2-(2-(2-(5-cyano-2-(methylthio)-6-oxo-1,6-dihydropyrimidin-4-yl)vinyl)-6-methoxyphenoxy)acetic acid] fall in the same range of IC50: 100 to 1000 nM for the first, 100 to 1000 nM for the second.

Compared with `N#Cc1c(/C=C/c2cccc(OCC(=O)O)c2)[nH]c(=O)[nH]c1=O` [I-3, (E)-2-(3-(2-(5-cyano-2,6-dioxo-1,2,3,6-tetrahydropyrimidin-4-yl)vinyl)phenoxy)acetic acid], `COc1cccc(/C=C/c2[nH]c(=S)[nH]c(=O)c2C#N)c1` [I-10, (E)-6-(3-methoxystyryl)-4-oxo-2-thioxo-1,2,3,4-tetrahydropyrimidine-5-carbonitrile] is lower in IC50: 1000 to 2000 nM for the first, 100 to 1000 nM for the second. The second is the more potent here.

`N#Cc1c(/C=C/c2ccccc2-c2cc(F)c(O)c(F)c2)[nH]c(=O)[nH]c1=O` [I-4, (E)-6-(2-(3′,5′-difluoro-4′-hydroxy-[1,1′-biphenyl]-2-yl)vinyl)-2,4-dioxo-1,2,3,4-tetrahydropyrimidine-5-carbonitrile] and `N#Cc1c(/C=C/c2ccccc2OCC(=O)O)[nH]c(=S)[nH]c1=O` [I-6, (E)-2-(2-(2-(5-cyano-6-oxo-2-thioxo-1,2,3,6-tetrahydropyrimidin-4-yl)vinyl)phenoxy)acetic acid] fall in the same range of IC50: 100 to 1000 nM for the first, 100 to 1000 nM for the second.

`COc1cccc(/C=C/c2[nH]c(=S)[nH]c(=O)c2C#N)c1OC(C)(C)C(=O)O` [I-8, (E)-2-(2-(2-(5-cyano-6-oxo-2-thioxo-1,2,3,6-tetrahydropyrimidin-4-yl)vinyl)-6-methoxyphenoxy)-2-methylpropanoic acid] and `COc1cccc(/C=C/c2[nH]c(=S)[nH]c(=O)c2C#N)c1OC(C)C(=O)O` (stereo not shown) [I-9, (E)-2-(2-(2-(5-cyano-6-oxo-2-thioxo-1,2,3,6-tetrahydropyrimidin-4-yl)vinyl)-6-methoxyphenoxy)propanoic acid] fall in the same range of IC50: 100 to 1000 nM for the first, 100 to 1000 nM for the second.

First: N#Cc1c(-c2cccc(-c3cccc(C(=O)O)c3)c2)[nH]c(=S)[nH]c1=O [I-16, 3′-(5-cyano-6-oxo-2-thioxo-1,2,3,6-tetrahydropyrimidin-4-yl)-[1,1′-biphenyl]-3-carboxylic acid]
Second: CCOc1cc(/C=C/c2[nH]c(=O)[nH]c(=O)c2[N+](=O)[O-])ccc1OCC(=O)O [I-17, (E)-2-(2-ethoxy-4-(2-(5-nitro-2,6-dioxo-1,2,3,6-tetrahydropyrimidin-4-yl)vinyl)henoxy)acetic acid]
The IC50 of the first is lower: 100 to 1000 nM for the first, 1000 to 2000 nM for the second.

Reference: patent publication US20210230123A1, “INHIBITORS OF ALPHA-AMINO-BETA-CARBOXYMUCONIC ACID SEMIALDEHYDE DECARBOXYLASE” (TES Pharma S.r.l., priority 2016, published 2021)
